Source: PMC10510324, “A Biomimetic C-Terminal Extension Strategy for Photocaging Amidated Neuropeptides” (Journal of the American Chemical Society, 2023)

Tests used:
[1] = cited from earlier work
Excerpt: With the target NPP-caged peptides in hand, we examined their photochemical reactivity in cell-compatible aqueous solution (phosphate-buffered saline, pH 7.2). […] Collectively, they were consumed 25–40 ...

CCK2R = molecular target: T1, CCK2R (Mus musculus, UniProt P56481); test: Whole-cell recording of membrane currents, PV interneurons of hippocampal CA1, acute brain slices; assay type: cell-based; conditions: antagonist 1 μM
T1 construct: from tissue; host or cells: acute mouse brain slices, PV interneurons of hippocampal CA1 (PvalbCre; Ai14 mice)
T1 sequence (P56481 1-453): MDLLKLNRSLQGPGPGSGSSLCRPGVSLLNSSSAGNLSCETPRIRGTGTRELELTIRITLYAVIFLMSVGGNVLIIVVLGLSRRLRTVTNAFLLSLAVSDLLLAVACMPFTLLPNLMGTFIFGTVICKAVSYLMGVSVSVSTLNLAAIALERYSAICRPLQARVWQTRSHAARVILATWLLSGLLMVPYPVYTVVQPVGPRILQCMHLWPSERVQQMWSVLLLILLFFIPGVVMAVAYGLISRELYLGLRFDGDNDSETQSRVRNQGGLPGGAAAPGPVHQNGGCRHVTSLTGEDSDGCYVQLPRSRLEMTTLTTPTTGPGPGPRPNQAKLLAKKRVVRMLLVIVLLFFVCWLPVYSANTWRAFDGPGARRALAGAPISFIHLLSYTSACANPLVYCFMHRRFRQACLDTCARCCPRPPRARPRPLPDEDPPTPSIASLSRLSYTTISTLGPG
Excerpt: Photoactivatable neuropeptides are powerful tools that can drive studies into the mechanisms of endogenous receptor signaling in acute brain slices.[3],[8],[40] To determine if NPP-caged peptides are compatible with such experiments, we established electrophysiological assays for measuring the activation of GRPR, OTR, NK1R, and CCK2R in acute brain slices taken from transgenic mice. These assays involved whole cell recordings of membrane currents from genetically defined neurons located in different brain regions where endogenous receptor activation produces inward, excitatory currents that facilitate action potential firing. Neuropeptide receptor-expressing cells were identified for fluorescence-guided, targeted electrophysiological recordings using transgenic mice that contain transgenes encoding Cre-recombinase under a promotor that is specific to the cell of interest, as well as a Cre-dependent tdTomato fluorescent protein via the Ai14 (Rosa26-lsl-tdTomato) reporter strain. […]
(A) Average inward currents over time after bath application of GRP(14-27)-NPP (3 μM, n = 5 cells from 4 mice) or GRP(14-27) (300 nM, n = 5 from 4 mice), recorded from fluorescently labeled VIP interneurons in layer 1 of the motor cortex. Data are expressed as the mean ± SEM. […] Data are expressed as the mean ± SEM. […] Data are expressed as the mean ± SEM. […] Data are expressed as the mean ± SEM. […]

locus coeruleus = conditions: bath applied; cited from earlier work
Excerpt: Although extracellular peptidases are known to limit peptide concentrations in the nervous system, how they shape the temporal dynamics of neuropeptide signaling in the brain is poorly understood. For example, rapid proteolysis by peptidases localized near peptide receptors might limit the peak concentration of peptide and thus the degree of receptor activation.

[2] = test system: its receptors (GRP receptors); conditions: cited from earlier work
Excerpt: This motif is associated with immature neuropeptides that are likely not intended for receptor binding. […] We therefore reasoned that inclusion of the entire C-terminal amidation sequence might be particularly effective at reducing binding affinity if incorporated into C-terminally caged peptides, especially due to the presence of bulky, positively charged amino acids found in the dibasic motif. To mimic the proneuropept ...

## COc1ccc([N+](=O)[O-])c2c1CCN2C(=O)CC[C@H](N)C(=O)O [MNI-glutamate, 4-Methoxy-7-nitroindolinyl-caged-L-glutamate]
[1]
  quantum yield: 0.065

## Cc1cccc(NC(=O)N[C@@H]2N=C(c3ccccc3)c3ccccc3N(CC(=O)c3ccccc3C)C2=O)c1 [YM022, (R)-N-[2,3-Dihydro-1-[2-(2-methylphenyl)-2-oxoethyl]-2-oxo-5-phenyl-1H-1,4-benzodiazepin-3-yl]-N'-(3-methylphenyl)-urea]
CCK2R
  block of light-evoked CCK(8S)-NPP current: strongly attenuated

## enkephalin
Locus coeruleus
  increase of potency by peptidase inhibition: 10 fold

B1: progastrin-releasing peptide: prohormone of gastrin-releasing peptide, literature finding (protein, UniProt P07492 24-148, looked up)
pro-form: VPLPAGGGTVLTKMYPRGNHWAVGHLMGKKSTGESSSVSERGSLKQQLREYIRWEEAARNLLGLIEAKENRNHQPPQPKALGNQQPSWDSEDSSNFKDVGSKGKVGRLSAPGSQREGRNPQLNQQ
modifications: pro-form
notes: prohormone of gastrin-releasing peptide, literature finding
[2]
  receptor binding: does not bind
